Source: patent publication US20100061928A1, “LABELLED ANALOGUES OF HALOBENZAMIDES AS RADIOPHARMACEUTICALS” (Institut National De La Sante et De La Recherche Medicale …, priority 2006, published 2010)
Structures can show the parent of a compound that is named as a salt. Blank lines part the entries; values can stand above or below the molecule they belong to.

Assays:
[1] = Elimination of the molecules: cumulative urinary and faecal excretion 0-72 hours; format: in vivo, mouse; conditions: for Faecal elimination 0-72 hours (Faeces) / Urinary and faecal elimination 0-72 hours (Total) / Urinary elimination 0-72 hours (Urine): cumulative excretion 0-72 hours; for Faecal elimination 0-72 hours (Faeces) / Urinary elimination 0-72 hours (Urine): mice in metabolic cages; for Urinary and faecal elimination 0-72 hours (Total): urine + faeces
tumour = experiment: Dosimetry with regard to the tumour (MIRD programme, extrapolated to ^131I); conditions: for Effective period: extrapolated to 131I labelling; for Biological period: from biodistribution data
[2] = system: grafted B16 F0 murine melanoma tumour; experiment: Biodistribution of the ^125I-labelled molecules in the melanoma-bearing mouse (autoradiography of whole-body sections); conditions: for Biodistribution, Mean, B 16: B 16 tumour
Experimental: The distribution of the radioactivity of the various compounds in the body (tumour and other organs) is quantified using an Ambis 4000 image analyzer on sections of whole animals. […] All the in vivo experimentation is carried out within the context defined by French legislation relating to animal experimentation.
The B16 F0 melanoma cells are provided by the ATCC and cultured in monolayers in culture medium (MEM, Invitrogen) supplemented with 10% foetal calf serum and antibiotics. The cultures are maintained by subculturing after trypsinization. The cells of the first passages are frozen and stored in liquid nitrogen. For the transplanting, the cells in culture at confluence are detached by trypsinization and washed with phosphate buffer (PBS).
The distribution of the radioactivity present in the sections is analyzed using an AMBIS 4000 analyzer (Scanalytics, CSPI, San Diego, Calif.), which is a proportional counter with a multiwire chamber validated and calibrated beforehand for the monitoring of iodine in the mouse. The measurements require acquisition times of 1000 minutes. […] The value of radioactivity per unit of surface area (cpm/mm^2) is converted to concentration (kBq/g) and expressed as percentage of the injected dose/g of tissue (% ID/g).

Faecal elimination 0-72 hours (Faeces) [1]: 69.2%
Urinary and faecal elimination 0-72 hours (Total) [1]: 93.0%
Urinary elimination 0-72 hours (Urine) [1]: 23.8%
elimination route (in words) ([1]; urinary versus faecal, 0-72 hours): faecal route predominates
Effective period (tumour): 49.4 h
Biological period (tumour): 66.3 hours
Biodistribution, Mean, B 16 ([2]; 1 H): 4.69
Biodistribution, Mean, B 16 ([2]; 3 H): 4.05
Biodistribution, Mean, B 16 ([2]; 6 H): 5.81
Biodistribution, Mean, B 16 ([2]; 24 H): 2.74
Biodistribution, Mean, B 16 ([2]; 72 H): 2.35
Biodistribution, Mean, Ic ([2]; 1 H): 52.94
Biodistribution, Mean, Ic ([2]; 3 H): 90.12
Biodistribution, Mean, Ic ([2]; 6 H): 61.06
Biodistribution, Mean, Ic ([2]; 24 H): 1.62
Biodistribution, Mean, Ic ([2]; 72 H): 0.70
Biodistribution, Mean, Sc ([2]; 1 H): 12.74
Biodistribution, Mean, Sc ([2]; 3 H): 9.93
Biodistribution, Mean, Sc ([2]; 6 H): 22.27
Biodistribution, Mean, Sc ([2]; 24 H): 0.13
Biodistribution, Mean, blood ([2]; 1 H): 0.42
Biodistribution, Mean, blood ([2]; 3 H): 0.23
Biodistribution, Mean, blood ([2]; 6 H): 0.17
Biodistribution, Mean, blood ([2]; 24 H): 0.22
Biodistribution, Mean, brain ([2]; 1 H): 0.07
Biodistribution, Mean, brain ([2]; 6 H): 0.08
Biodistribution, Mean, brain ([2]; 24 H): 0.04
Biodistribution, Mean, brain ([2]; 72 H): 0.10
Biodistribution, Mean, kidney ([2]; 1 H): 2.80
Biodistribution, Mean, kidney ([2]; 3 H): 0.80
Biodistribution, Mean, kidney ([2]; 6 H): 0.20
Biodistribution, Mean, kidney ([2]; 24 H): 0.03
Biodistribution, Mean, liver ([2]; 1 H): 5.16
Biodistribution, Mean, liver ([2]; 3 H): 1.84
Biodistribution, Mean, liver ([2]; 6 H): 0.32
Biodistribution, Mean, liver ([2]; 24 H): 0.07
Biodistribution, Mean, lungs ([2]; 1 H): 2.06
Biodistribution, Mean, lungs ([2]; 3 H): 0.88
Biodistribution, Mean, lungs ([2]; 6 H): 0.15
Biodistribution, Mean, lungs ([2]; 24 H): 0.04
Biodistribution, Mean, muscle ([2]; 1 H): 0.92
Biodistribution, Mean, muscle ([2]; 3 H): 0.13
Biodistribution, Mean, muscle ([2]; 6 H): 0.01
Biodistribution, Mean, pancreas ([2]; 1 H): 5.74
Biodistribution, Mean, pancreas ([2]; 3 H): 0.96
Biodistribution, Mean, pancreas ([2]; 6 H): 1.08
Biodistribution, Mean, spleen ([2]; 1 H): 1.24
Biodistribution, Mean, spleen ([2]; 3 H): 0.28
Biodistribution, Mean, spleen ([2]; 6 H): 0.26
Biodistribution, Mean, spleen ([2]; 24 H): 0.15
Biodistribution, Mean, thyroid ([2]; 3 H): 4.33
Biodistribution, Mean, thyroid ([2]; 6 H): 8.55
Biodistribution, Mean, thyroid ([2]; 24 H): 5.09
Biodistribution, Mean, thyroid ([2]; 72 H): 9.83
Biodistribution, Mean, uvea ([2]; 1 H): 5.12
Biodistribution, Mean, uvea ([2]; 3 H): 5.66
Biodistribution, Mean, uvea ([2]; 6 H): 5.18
Biodistribution, Mean, uvea ([2]; 24 H): 3.5
Biodistribution, Mean, uvea ([2]; 72 H): 6.79
SMILES: CCN(CC)CCNC(=O)c1c[nH]c2ccc(I)cc2c1=O [compound 35, N-(2-diethylaminoethyl)-1,4-dihydro-6-iodo-4-oxoquinoline-3-carboxamide dihydrochloride]

Faecal elimination 0-72 hours (Faeces) [1]: 21.2%
Urinary and faecal elimination 0-72 hours (Total) [1]: 71.1%
Urinary elimination 0-72 hours (Urine) [1]: 49.9%
Effective period (tumour): 43.6 h
Biological period (tumour): 56.3 hours
Biodistribution, Mean, B 16 ([2]; 1 H): 7.27
Biodistribution, Mean, B 16 ([2]; 3 H): 7.12
Biodistribution, Mean, B 16 ([2]; 6 H): 7.92
Biodistribution, Mean, B 16 ([2]; 24 H): 7.05
Biodistribution, Mean, B 16 ([2]; 72 H): 3.13
Biodistribution, Mean, Ic ([2]; 1 H): 42.97
Biodistribution, Mean, Ic ([2]; 3 H): 68.64
Biodistribution, Mean, Ic ([2]; 6 H): 29.16
Biodistribution, Mean, Ic ([2]; 24 H): 1.70
Biodistribution, Mean, Sc ([2]; 1 H): 23.01
Biodistribution, Mean, Sc ([2]; 3 H): 19.05
Biodistribution, Mean, Sc ([2]; 6 H): 28.44
Biodistribution, Mean, Sc ([2]; 24 H): 0.75
Biodistribution, Mean, blood ([2]; 1 H): 2.15
Biodistribution, Mean, blood ([2]; 3 H): 2.65
Biodistribution, Mean, blood ([2]; 6 H): 2.17
Biodistribution, Mean, brain ([2]; 1 H): 0.30
Biodistribution, Mean, brain ([2]; 3 H): 0.09
Biodistribution, Mean, kidney ([2]; 1 H): 4.62
Biodistribution, Mean, kidney ([2]; 3 H): 2.66
Biodistribution, Mean, kidney ([2]; 6 H): 2.11
Biodistribution, Mean, liver ([2]; 1 H): 3.86
Biodistribution, Mean, liver ([2]; 3 H): 2.02
Biodistribution, Mean, liver ([2]; 6 H): 1.54
Biodistribution, Mean, liver ([2]; 24 H): 0.43
Biodistribution, Mean, lungs ([2]; 1 H): 3.68
Biodistribution, Mean, lungs ([2]; 3 H): 2.76
Biodistribution, Mean, lungs ([2]; 6 H): 2.05
Biodistribution, Mean, muscle ([2]; 1 H): 0.74
Biodistribution, Mean, muscle ([2]; 3 H): 0.43
Biodistribution, Mean, pancreas ([2]; 1 H): 2.39
Biodistribution, Mean, spleen ([2]; 1 H): 2.83
Biodistribution, Mean, spleen ([2]; 72 H): 1.62
Biodistribution, Mean, thyroid ([2]; 1 H): 16.88
Biodistribution, Mean, thyroid ([2]; 3 H): 35.71
Biodistribution, Mean, thyroid ([2]; 6 H): 48.93
Biodistribution, Mean, thyroid ([2]; 24 H): 88.65
Biodistribution, Mean, thyroid ([2]; 72 H): 132.79
Biodistribution, Mean, uvea ([2]; 1 H): 18.08
Biodistribution, Mean, uvea ([2]; 3 H): 13.87
Biodistribution, Mean, uvea ([2]; 6 H): 18.02
Biodistribution, Mean, uvea ([2]; 24 H): 14.55
Biodistribution, Mean, uvea ([2]; 72 H): 9.73
SMILES: CCN(CC)CCNC(=O)c1cc2c(I)cccc2cn1 [compound 39, N-(2-diethylaminoethyl)-5-iodoisoquinoline-3-carboxamide dihydrochloride]
